{
  "source": "paper PMC10730845",
  "about": "“Endoxifen downregulates AKT phosphorylation through protein kinase C beta 1 inhibition in ERα+ breast cancer” (NPJ Breast Cancer, 2023)",
  "key": {"PKC gamma (PKCg)": {"biological_target": "PKC gamma (PKCg) (Homo sapiens, UniProt P05129)", "test": "In vitro kinase assay, PKC gamma", "format": "biochemical", "conditions": "10 μM ATP", "excerpt": "(§1) Supplementary Table 4. In vitro kinase assay showing the IC 50 concentration of ENDX and\n(§2) of the 12 PKC family members.\n(§3) (1 picture or pasted object on this page, not shown here)"}, "[1]": {"system": "PKCβ1 and AKT^Ser473 phosphorylation in HEK293F cells", "test": "Immunoblot of PKCβ1 and pAKT^Ser473, HEK293F", "format": "cell-based, human", "conditions": "5 µM, 2 h pretreatment, 100 nM insulin 1 h", "excerpt": "(§4) To determine whether the observed effects of ENDX on PKCβ1 degradation and AKT^Ser473 phosphorylation inhibition are dependent on the presence of ERα, we additionally evaluated ENDX effects on PKCβ1 degradation and AKT^Ser473 phosphorylation in the ER negative (ER-) MDAMB231 breast cancer cells and nonbreast HEK293F cells, a human embryonic kidney cell line, both of which express higher amounts of PKCβ1 compared to ERα+ MCF7AC1 cells (Supplementary Fig. 5a). […] To determine whether the addition of ERα to the MDAMB231 cell line could facilitate ENDX effects on PKCβ1, we performed doxycycline (dox)-induced ERα protein expression in MDAMB231 cells and evaluated ENDX effects on PKCβ1 using the above-mentioned experimental conditions. […] Additionally, we pretreated MDAMB231 and HEK293F cells with or without 5 µM ENDX for 1 h followed by 0 or 200 nM PMA treatment for 20 min and evaluated effects on PKCβ1.\n(§5) Supplementary Figure 5. Effects of ENDX on PKCβ1, phospho -PKCB1Ser661 and phospho-AKTSer473 expression levels in ERα- breast cancer cells. a, Basal expression of PKCβ1 and ERα in the indicated cell lines. […]"}, "[2]": {"conditions": "cited from earlier work"}, "PKC eta (PKCh)": {"biological_target": "PKC eta (PKCh) (Homo sapiens, UniProt P24723)", "sequence (P24723 whole entry)": "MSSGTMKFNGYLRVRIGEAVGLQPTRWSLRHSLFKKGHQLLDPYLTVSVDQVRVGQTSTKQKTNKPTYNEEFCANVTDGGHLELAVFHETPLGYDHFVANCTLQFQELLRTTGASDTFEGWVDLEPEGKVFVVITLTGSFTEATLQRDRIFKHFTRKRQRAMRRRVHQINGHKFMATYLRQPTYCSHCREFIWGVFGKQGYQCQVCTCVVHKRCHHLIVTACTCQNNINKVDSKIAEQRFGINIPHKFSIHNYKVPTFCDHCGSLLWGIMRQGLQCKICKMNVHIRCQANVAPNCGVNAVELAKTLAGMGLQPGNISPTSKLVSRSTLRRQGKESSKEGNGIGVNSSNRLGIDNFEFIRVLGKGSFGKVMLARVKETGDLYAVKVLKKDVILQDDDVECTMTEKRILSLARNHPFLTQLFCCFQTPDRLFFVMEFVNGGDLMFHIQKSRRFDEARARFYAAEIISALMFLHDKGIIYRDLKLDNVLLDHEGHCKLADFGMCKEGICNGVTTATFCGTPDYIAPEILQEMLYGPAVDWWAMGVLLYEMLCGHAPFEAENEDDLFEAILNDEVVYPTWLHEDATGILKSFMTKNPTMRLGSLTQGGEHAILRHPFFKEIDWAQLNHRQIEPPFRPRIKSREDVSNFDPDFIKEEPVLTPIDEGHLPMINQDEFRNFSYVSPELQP", "test": "In vitro kinase assay, PKC eta", "format": "biochemical", "conditions": "10 μM ATP", "excerpt": "as §1, §2, §3"}, "MDAMB231 cells": {"system": "MDAMB231 cells", "test": "Crystal violet growth assay, MDAMB231", "format": "cell-based, human", "conditions": "0–10 µM tested, day seven", "excerpt": "(§6) Supplementary Figure 8. […]\n(§7) ANOVA. b, Effects of ENDX on cell proliferation at the indicated concentrations on day seven of\n(§8) treatment. […]"}, "[3]": {"system": "ERα+/HER2- metastatic breast cancer", "conditions": "cited from earlier work"}, "[4]": {"system": "PKCβ1 and AKT^Ser473 phosphorylation in MDAMB231 cells", "test": "Immunoblot of PKCβ1 and pAKT^Ser473, MDAMB231", "format": "cell-based, human", "conditions": "5 µM, 2 h pretreatment, 100 nM insulin 1 h", "excerpt": "as §4, §5"}, "PKC nu (PKCn/PRKD3)": {"biological_target": "PKC nu (PKCn/PRKD3) (Homo sapiens, UniProt O94806)", "sequence (O94806 whole entry)": "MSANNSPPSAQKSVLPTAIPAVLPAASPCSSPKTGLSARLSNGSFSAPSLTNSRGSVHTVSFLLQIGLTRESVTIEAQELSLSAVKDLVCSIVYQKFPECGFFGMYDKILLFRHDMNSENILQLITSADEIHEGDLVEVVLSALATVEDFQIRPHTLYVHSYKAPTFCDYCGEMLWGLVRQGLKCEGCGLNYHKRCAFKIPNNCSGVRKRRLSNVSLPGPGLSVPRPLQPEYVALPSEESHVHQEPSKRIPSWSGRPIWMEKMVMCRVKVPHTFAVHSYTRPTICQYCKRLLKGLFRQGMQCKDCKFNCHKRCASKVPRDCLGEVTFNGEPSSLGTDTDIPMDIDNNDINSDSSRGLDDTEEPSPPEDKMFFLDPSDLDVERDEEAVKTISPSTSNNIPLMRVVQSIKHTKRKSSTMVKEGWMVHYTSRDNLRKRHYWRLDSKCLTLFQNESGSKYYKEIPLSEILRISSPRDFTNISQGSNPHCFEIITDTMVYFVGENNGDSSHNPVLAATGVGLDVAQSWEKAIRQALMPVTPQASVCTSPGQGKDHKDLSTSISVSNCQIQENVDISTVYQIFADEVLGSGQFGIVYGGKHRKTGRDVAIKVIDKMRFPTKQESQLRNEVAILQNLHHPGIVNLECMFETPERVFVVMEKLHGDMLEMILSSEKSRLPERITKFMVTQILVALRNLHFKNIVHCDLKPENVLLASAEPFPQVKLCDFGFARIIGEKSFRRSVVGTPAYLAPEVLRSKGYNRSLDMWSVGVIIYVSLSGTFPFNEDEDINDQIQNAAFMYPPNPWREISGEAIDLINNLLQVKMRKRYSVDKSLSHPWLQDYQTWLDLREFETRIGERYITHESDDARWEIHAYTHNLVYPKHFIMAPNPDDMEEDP", "test": "In vitro kinase assay, PKC nu", "format": "biochemical", "conditions": "10 μM ATP", "excerpt": "as §1, §2, §3"}, "BT549 cells": {"system": "BT549 cells", "test": "Crystal violet growth assay, BT549", "format": "cell-based, human", "conditions": "day seven", "excerpt": "as §6, §7, §8"}, "PKCβ1 in MCF7AC1 cells": {"system": "PKCβ1 in MCF7AC1 cells", "test": "Immunoblot of PKCβ1 and pPKCβ1^Ser661, MCF7AC1", "format": "cell-based, human", "conditions": "serum starved; for Effect on PMA-stimulated PKCβ1^Ser661 phosphorylation: 2 h pretreatment, 200 nM PMA 20 min", "experimental": "The ENDX hydrochloride utilized in this study was synthesized in collaboration between Mayo Clinic and National Institute of Health (NIH). Estrogen deprived MCF7AC1 were treated with vehicle control or ENDX (National Cancer Institute) for 24 h. For the phorbol 12-myristate 13-acetate (PMA) (LC Laboratories, #P-1680) experiments, MCF7AC1 cells were maintained in serum-free medium for 24 h prior to pretreatment with vehicle or ENDX for 2 h followed by treatment with 20 or 200 nM PMA for 20 min. For the insulin (Sigma-Aldrich, #I0516) experiments, MCF7AC1 and T47D cells were maintained in serum-free medium for 24 h prior to pretreatment with vehicle control or drugs for 2 h followed by treatment with 100 nM insulin for 1 h.\nProtein lysates were prepared using the RIPA lysis buffer system (ChemCruz #sc-24948) and quantified using the DC^TM Protein Assay reagents (Bio-Rad #5000112). Equal amounts of protein lysates were separated on 10% Criterion gels (Bio-Rad #3450112), transferred to PVDF membranes (Bio-Rad #1620177), blocked in TBST-5% milk and probed with primary antibodies listed in Supplementary Table 5, at the indicated dilutions. Membranes were incubated with HRP-conjugated anti-rabbit (CST #7074) or anti-mouse (CST #7076) secondary antibodies and visualized using chemiluminescent West Pico (Thermo Scientific #34580) or West Femto (Thermo Scientific #34096) reagents and a Li-Cor Odyssey® XF imager. Protein lysates from the MCF7AC1 xenograft model were obtained from a previous study. Quantitation of the protein bands signal intensity was performed using the NIH ImageJ image analysis software (https://imagej.nih.gov/ij///index.html). For the quantitation of the phospho protein levels, we first normalized total protein levels to β-actin loading control and used these values to normalize the phospho protein levels and compared change in protein expression levels relative to vehicle control normalized to 1.0. For the quantitation of total protein levels, we normalized the total protein levels to β-actin and compared change in expression levels relative to vehicle control normalized to 1.0. All blots were processed in parallel and derived from the same experiments. Unprocessed immunoblot images are provided in Supplementary Figs. 9–13."}, "MDAMB436 cells": {"system": "MDAMB436 cells", "test": "Crystal violet growth assay, MDAMB436", "format": "cell-based, human", "conditions": "day seven", "excerpt": "as §6, §7, §8"}},
  "data": [
    {"molecule": "CC/C(=C(\\c1ccc(O)cc1)c1ccc(OCCNC)cc1)c1ccccc1", "note": "[ENDX, Z-endoxifen]", "values": [
      {"measurement": "IC50", "setting": "PKC gamma (PKCg)", "result": 49.7, "unit": "µM"},
      {"measurement": "Effect on PKCβ1 protein levels", "setting": "[1]", "result": "did not impact PKCβ1 protein levels"},
      {"measurement": "Effect on insulin induced AKT^Ser473 phosphorylation", "setting": "[1]", "result": "did not inhibit this phosphorylation"},
      {"measurement": "Effect on uterine weight and epithelial cell height", "setting": "[2]; intact rats", "result": "substantially lowered uterine weight and increased epithelial cell height"},
      {"measurement": "Uterotrophic potency", "setting": "[2]; ovariectomized Sprague-Dawley rats", "result": "less potent than estradiol in eliciting uterotrophic effects"},
      {"measurement": "IC50", "setting": "PKC eta (PKCh)", "result": "> 50", "unit": "µM"},
      {"measurement": "Concentrations at which growth was inhibited", "setting": "MDAMB231 cells", "result": "≥ 7.5", "unit": "µM"},
      {"measurement": "PFS hazard ratio (HR) ENDX vs TAM, CDK4/6i naïve patients", "setting": "[3]; 95% CI 0.22–0.80", "result": 0.42},
      {"measurement": "PFS hazard ratio (HR) ENDX vs TAM, overall", "setting": "[3]; 95% CI 0.49–1.22", "result": 0.77},
      {"measurement": "PFS in CDK4/6 inhibitor naïve patients", "setting": "[3]; CDK4/6i naïve", "result": 7.2, "unit": "m"},
      {"measurement": "Progression free survival (PFS) overall", "setting": "[3]; women with ERα+/HER2- metastatic breast cancer progressed on endocrine therapy", "result": 4.3, "unit": "m"},
      {"measurement": "Effect on PKCβ1 protein levels", "setting": "[4]", "result": "did not impact PKCβ1 protein levels"},
      {"measurement": "Effect on insulin induced AKT^Ser473 phosphorylation", "setting": "[4]", "result": "did not inhibit this phosphorylation"},
      {"measurement": "IC50", "setting": "PKC nu (PKCn/PRKD3)", "result": 26.4, "unit": "µM"},
      {"measurement": "Concentrations at which growth was inhibited", "setting": "BT549 cells", "result": "> 7.5", "unit": "µM"},
      {"measurement": "Effect on PKCβ1^Ser661 phosphorylation in insulin treated cells", "setting": "PKCβ1 in MCF7AC1 cells; 100 nM insulin 1 h", "result": "no effects on PKCβ1^Ser661 phosphorylation"},
      {"measurement": "Effect on PKCβ1 total protein in insulin treated cells", "setting": "PKCβ1 in MCF7AC1 cells; 100 nM insulin 1 h, ENDX 0.01, 0.1, 5 µM, TAM 0.1 µM, ICI 0.1 µM", "result": "reduced PKCβ1 total protein levels"},
      {"measurement": "Effect on PMA-stimulated PKCβ1^Ser661 phosphorylation", "setting": "PKCβ1 in MCF7AC1 cells; 5 μM", "result": "minimal"},
      {"measurement": "Effect on PMA-stimulated PKCβ1^Ser661 phosphorylation", "setting": "PKCβ1 in MCF7AC1 cells; 0.01, 0.1 μM", "result": "no"},
      {"measurement": "Concentration robustly reducing PKCβ1 total protein levels", "setting": "PKCβ1 in MCF7AC1 cells; PMA-stimulated, 0.01, 0.1 and 5 μM tested", "result": 5, "unit": "µM"},
      {"measurement": "Concentrations at which growth was inhibited", "setting": "MDAMB436 cells", "result": "> 7.5", "unit": "µM"}
    ]}
  ]
}
